Measurements taken from patent US20260249027A1, “METERED DOSE INHALERS AND HIGH-DOSE SUSPENSIONS” (Kindeva Drug Delivery L.P., priority 2023, published 2026).

Tests used:
[1] = Aerodynamic particle size measurement of mometasone furoate pMDI suspensions (Next Generation impactor); assay type: physicochemical
Source text: In general, aerosols with mass median aerodynamic diameters (MMAD) of at least 1 μm but less than 5 μm in size are suitable for effective deep lung deposition for therapeutic effect. Herein, fine particle fraction (FPF) is defined as the percentage of the ex-actuator delivered API having a MMAD of less than 5 μm when tested in vitro. Herein, “ex-actuator” delivered dose is used to describe the amount of API delivered past the actuator of a pMDI. Therefore, an aerosol with a high FPF is typically suitable for deep lung deposition.
(§1) In the following examples, dose consistency was determined by in vitro measurement of single actuation dose content at start, middle and end of pMDI unit life in line with U.S. Pharmacopeia (USP)<601>, using a flow rate of 28.3 L/min and apparatus A. Aerodynamic particle size distribution of the pMDI suspension aerosols was measured at start of unit life in line with U.S. Pharmacopeia (USP)<601> using a Next Generation impactor without pre-separator (apparatus 6) and a flow rate of 30 L/min.
(§2) Suspensions of micronized mometasone furoate in HFA-152a or HFO-1234ze(E) were prepared. A first set of suspensions included no ethanol. A second set of suspensions included 2% ethanol by weight. Each suspension included an amount of mometasone furoate to provide a nominal delivered dose (ex-valve) of 0.5 mg/actuation (10.0 mg/mL) or 1.0 mg/actuation (20.0 mg/mL). Two further suspensions including no ethanol were prepared which included an amount of mometasone furoate to provide a nominal delivered dose (ex-valve) of 2.0 mg/actuation (40.0 mg/mL).
In total, ten suspension pMDI formulations were prepared in triplicate with sufficient fill weight to provide 60 actuations. Each suspension was filled into Kindeva FEP coated canisters, crimped with a Kindeva 50-μL valve. Each pMDI unit was sonicated for at least 10 minutes to disperse the suspended drug and tested with a Kindeva actuator having an exit orifice diameter (EOD) of 0.4 mm or 0.25 mm.
The mass median aerodynamic diameter (MMAD) and fine particle fraction (FPF) of each pMDI unit were measured by Next Generation cascade impaction (N=3) for each pMDI suspension.

[2] = Through life dose consistency of mometasone furoate pMDI suspensions (USP <601>, apparatus A); assay type: physicochemical
Protocol: as §1, §2
In total, ten suspension pMDI formulations were prepared in triplicate with sufficient fill weight to provide 60 actuations. Each suspension was filled into Kindeva FEP coated canisters, crimped with a Kindeva 50-μL valve. Each pMDI unit was sonicated for at least 10 minutes to disperse the suspended drug and tested with a Kindeva actuator having an exit orifice diameter (EOD) of 0.4 mm.
The through-life (TL) dose consistency of each pMDI unit was determined by measuring the mean ex-actuator delivered dose in micrograms of mometasone furoate (N=3) at the start of life (SoL), middle of life (MOL) and end of life (EoL) of the unit.

[3] = nominal ex-valve 0.5 mg/act, HFA-152a/2% EtOH (w/w), actuator exit orifice diameter 0.4 mm
[4] = nominal ex-valve 0.5 mg/act, HFA-152a, actuator exit orifice diameter 0.4 mm
[5] = nominal ex-valve 0.5 mg/act, HFO-1234ze(E)/2% EtOH (w/w), actuator exit orifice diameter 0.25 mm
[6] = nominal ex-valve 0.5 mg/act, HFO-1234ze(E)/2% EtOH (w/w), actuator exit orifice diameter 0.4 mm
[7] = nominal ex-valve 0.5 mg/act, HFO-1234ze(E), actuator exit orifice diameter 0.25 mm
[8] = nominal ex-valve 0.5 mg/act, HFO-1234ze(E), actuator exit orifice diameter 0.4 mm
[9] = nominal ex-valve 1.0 mg/act, HFA-152a/2% EtOH (w/w), actuator exit orifice diameter 0.25 mm
[10] = nominal ex-valve 1.0 mg/act, HFA-152a/2% EtOH (w/w), actuator exit orifice diameter 0.4 mm
[11] = nominal ex-valve 1.0 mg/act, HFA-152a, actuator exit orifice diameter 0.25 mm
[12] = nominal ex-valve 1.0 mg/act, HFA-152a, actuator exit orifice diameter 0.4 mm
[13] = nominal ex-valve 1.0 mg/act, HFO-1234ze(E)/2% EtOH (w/w), actuator exit orifice diameter 0.25 mm
[14] = nominal ex-valve 1.0 mg/act, HFO-1234ze(E)/2% EtOH (w/w), actuator exit orifice diameter 0.4 mm
[15] = nominal ex-valve 1.0 mg/act, HFO-1234ze(E), actuator exit orifice diameter 0.25 mm
[16] = nominal ex-valve 1.0 mg/act, HFO-1234ze(E), actuator exit orifice diameter 0.4 mm
[17] = nominal ex-valve 2.0 mg/act, HFA-152a, actuator exit orifice diameter 0.4 mm
[18] = nominal ex-valve 2.0 mg/act, HFO-1234ze(E), actuator exit orifice diameter 0.4 mm
[19] = nominal ex-valve 0.5 mg/act, HFA-152a
[20] = nominal ex-valve 0.5 mg/act, HFA-152a/2% EtOH (w/w)
[21] = nominal ex-valve 0.5 mg/act, HFO-1234ze(E)
[22] = nominal ex-valve 0.5 mg/act, HFO-1234ze(E)/2% EtOH (w/w)
[23] = nominal ex-valve 1.0 mg/act, HFA-152a
[24] = nominal ex-valve 1.0 mg/act, HFA-152a/2% EtOH (w/w)
[25] = nominal ex-valve 1.0 mg/act, HFO-1234ze(E)
[26] = nominal ex-valve 1.0 mg/act, HFO-1234ze(E)/2% EtOH (w/w)
[27] = nominal ex-valve 2.0 mg/act, HFA-152a
[28] = nominal ex-valve 2.0 mg/act, HFO-1234ze(E)

For C[C@@H]1C[C@H]2[C@@H]3CCC4=CC(=O)C=C[C@]4(C)[C@@]3(Cl)[C@@H](O)C[C@]2(C)[C@@]1(OC(=O)c1ccco1)C(=O)CCl [mometasone furoate], the “FPF with actuator EOD 0.25 mm compared with EOD 0.4 mm” value ([1]; 0.5 and 1.0 mg/actuation in HFO-1234ze(E), 1.0 mg/actuation in HFA-152a) was “consistently greater FPFs”, the “MMAD values of aerosols, suitability” value ([1]; HFA-152a or HFO-1234ze(E), with and without ethanol, in-vitro) was “in an appropriate respirable range” and the “FPF without ethanol compared with corresponding suspensions with 2% ethanol by weight” value ([1]; HFA-152a or HFO-1234ze(E), all nominal doses) was “generally produced greater FPFs”. For the same molecule, the “Mean FPF” value [1, 3] was 34.0%, the “Mean MMAD” value [1, 3] was 3.55 μm and the “Mean FPF” value [1, 4] was 37.5%. For the same molecule, the “Mean MMAD” value [1, 4] was 3.56 μm, the “Mean FPF” value [1, 5] was 55.3% and the “Mean MMAD” value [1, 5] was 3.70 μm. For the same molecule, the “Mean FPF” value [1, 6] was 39.0%, the “Mean MMAD” value [1, 6] was 3.70 μm and the “Mean FPF” value [1, 7] was 66.6%. For the same molecule, the “Mean MMAD” value [1, 7] was 3.41 μm, the “Mean FPF” value [1, 8] was 49.8% and the “Mean MMAD” value [1, 8] was 3.36 μm. The “Mean FPF” value [1, 9] was 45.3%, the “Mean MMAD” value [1, 9] was 3.91 μm and the “Mean FPF” value [1, 10] was 31.1%. For the same molecule, the “Mean MMAD” value [1, 10] was 3.90 μm, the “Mean FPF” value [1, 11] was 49.1% and the “Mean MMAD” value [1, 11] was 3.75 μm. The “Mean FPF” value [1, 12] was 29.4%, the “Mean MMAD” value [1, 12] was 4.13 μm and the “Mean FPF” value [1, 13] was 52.5%. The “Mean MMAD” value [1, 13] was 3.84 μm, the “Mean FPF” value [1, 14] was 31.8% and the “Mean MMAD” value [1, 14] was 4.01 μm. For the same molecule, the “Mean FPF” value [1, 15] was 58.8%, the “Mean MMAD” value [1, 15] was 3.61 μm and the “Mean FPF” value [1, 16] was 39.5%. For the same molecule, the “Mean MMAD” value [1, 16] was 3.69 μm, the “Mean FPF” value [1, 17] was 19.5% and the “Mean MMAD” value [1, 17] was 5.09 μm. The “Mean FPF” value [1, 18] was 22.5%, the “Mean MMAD” value [1, 18] was 4.87 μm and the “FPF and MMAD in HFO-1234ze(E) compared with corresponding suspensions in HFA-152a” value ([1]; with or without ethanol) was “consistently produced greater FPFs and generally smaller MMADs”. For the same molecule, the “effect of addition of ethanol on through unit life ex-actuator delivered dose consistency” value ([2]; 2% ethanol by weight, HFA-152a or HFO-1234ze(E)) was “did not always substantially improve”, the “through unit life ex-actuator delivered dose consistency” value ([2]; HFA-152a or HFO-1234ze(E) with and without 2% ethanol by weight) was “relatively consistent” and the “EoL mean delivered dose” value [2, 19] was 433.2 μg/act. For the same molecule, the “MoL mean delivered dose” value [2, 19] was 433.8 μg/act, the “SoL mean delivered dose” value [2, 19] was 457.7 μg/act and the “TL mean delivered dose” value [2, 19] was 441.6 μg/act. For the same molecule, the “EoL mean delivered dose” value [2, 20] was 450.9 μg/act, the “MoL mean delivered dose” value [2, 20] was 427.3 μg/act and the “SoL mean delivered dose” value [2, 20] was 408.9 μg/act. For the same molecule, the “TL mean delivered dose” value [2, 20] was 429.1 μg/act, the “EoL mean delivered dose” value [2, 21] was 430.8 μg/act and the “MoL mean delivered dose” value [2, 21] was 434.7 μg/act. For the same molecule, the “SoL mean delivered dose” value [2, 21] was 457.5 μg/act, the “TL mean delivered dose” value [2, 21] was 441.0 μg/act and the “EoL mean delivered dose” value [2, 22] was 465.7 μg/act. For the same molecule, the “MoL mean delivered dose” value [2, 22] was 453.1 μg/act, the “SoL mean delivered dose” value [2, 22] was 433.9 μg/act and the “TL mean delivered dose” value [2, 22] was 450.9 μg/act. For the same molecule, the “EoL mean delivered dose” value [2, 23] was 705.6 μg/act, the “MoL mean delivered dose” value [2, 23] was 1018.3 μg/act and the “SoL mean delivered dose” value [2, 23] was 1087.9 μg/act. For the same molecule, the “TL mean delivered dose” value [2, 23] was 937.3 μg/act, the “EoL mean delivered dose” value [2, 24] was 759.7 μg/act and the “MoL mean delivered dose” value [2, 24] was 936.3 μg/act. The “SoL mean delivered dose” value [2, 24] was 906.5 μg/act, the “TL mean delivered dose” value [2, 24] was 867.5 μg/act and the “EoL mean delivered dose” value [2, 25] was 934.4 μg/act. The “MoL mean delivered dose” value [2, 25] was 931.9 μg/act, the “SoL mean delivered dose” value [2, 25] was 752.4 μg/act and the “TL mean delivered dose” value [2, 25] was 855.3 μg/act. For the same molecule, the “EoL mean delivered dose” value [2, 26] was 848.1 μg/act, the “MoL mean delivered dose” value [2, 26] was 1003.4 μg/act and the “SoL mean delivered dose” value [2, 26] was 852.6 μg/act. The “TL mean delivered dose” value [2, 26] was 901.4 μg/act, the “EoL mean delivered dose” value [2, 27] was 1613.8 μg/act and the “MoL mean delivered dose” value [2, 27] was 1771.5 μg/act. The “SoL mean delivered dose” value [2, 27] was 1815.1 μg/act, the “TL mean delivered dose” value [2, 27] was 1733.4 μg/act and the “EoL mean delivered dose” value [2, 28] was 1837.0 μg/act. For the same molecule, the “MoL mean delivered dose” value [2, 28] was 1725.9 μg/act, the “SoL mean delivered dose” value [2, 28] was 1755.0 μg/act and the “TL mean delivered dose” value [2, 28] was 1772.6 μg/act.
